# Measurements reported in ChEMBL document CHEMBL1140730, “Validation of diacyl glycerolacyltransferase I as a novel target for the treatment of obesity and dyslipidemia using a potent and selective small molecule inhibitor” (J Med Chem, 2008).
# Tests used:
# [1] = biological target: T1, Diacylglycerol O-acyltransferase 1 (Mus musculus, UniProt Q9Z2A7); experiment: Inhibition of mouse recombinant DGAT1 expressed in Sf9 cells
# T1 sequence (Q9Z2A7 whole entry): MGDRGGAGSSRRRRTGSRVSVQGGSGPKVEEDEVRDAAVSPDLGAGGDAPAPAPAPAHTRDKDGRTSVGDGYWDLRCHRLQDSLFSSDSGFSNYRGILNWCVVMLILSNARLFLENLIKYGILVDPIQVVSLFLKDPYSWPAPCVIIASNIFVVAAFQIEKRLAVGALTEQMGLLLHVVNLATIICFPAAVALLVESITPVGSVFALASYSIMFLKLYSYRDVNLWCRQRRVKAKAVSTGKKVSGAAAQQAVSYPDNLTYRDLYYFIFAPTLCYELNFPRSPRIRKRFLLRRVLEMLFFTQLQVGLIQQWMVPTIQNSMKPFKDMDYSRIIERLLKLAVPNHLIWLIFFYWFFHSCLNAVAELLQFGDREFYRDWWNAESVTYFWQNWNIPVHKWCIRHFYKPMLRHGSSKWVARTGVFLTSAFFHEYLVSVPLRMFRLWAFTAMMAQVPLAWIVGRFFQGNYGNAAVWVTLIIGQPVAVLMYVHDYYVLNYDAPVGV
# [2] = biological target: T2, Diacylglycerol O-acyltransferase 1 (Homo sapiens, UniProt O75907); experiment: Inhibition of human recombinant DGAT1 expressed in Sf9 cells
# T2 sequence (O75907 whole entry): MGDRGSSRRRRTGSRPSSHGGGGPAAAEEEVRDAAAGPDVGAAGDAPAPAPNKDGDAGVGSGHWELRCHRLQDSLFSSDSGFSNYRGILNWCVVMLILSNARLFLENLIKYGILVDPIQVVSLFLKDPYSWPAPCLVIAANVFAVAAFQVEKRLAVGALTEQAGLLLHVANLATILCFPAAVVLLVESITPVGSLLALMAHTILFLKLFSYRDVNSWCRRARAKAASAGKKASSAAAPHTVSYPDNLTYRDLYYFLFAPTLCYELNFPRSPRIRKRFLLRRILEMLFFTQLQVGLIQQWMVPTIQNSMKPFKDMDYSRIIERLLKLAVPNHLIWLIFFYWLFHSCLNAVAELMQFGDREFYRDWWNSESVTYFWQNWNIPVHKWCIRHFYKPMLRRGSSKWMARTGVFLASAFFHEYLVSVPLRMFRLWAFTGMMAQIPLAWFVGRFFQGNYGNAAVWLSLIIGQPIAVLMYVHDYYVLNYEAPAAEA
Compound,IC50 [1],IC50 [2]
O=C(Nc1ccc(-c2ccc(C(=O)[C@@H]3CCC[C@H]3C(=O)O)cc2)cc1)Nc1cc(C(F)(F)F)ccc1F,21 nM,–
O=C(Nc1ccc(-c2ccc(C(=O)[C@@H]3CCC[C@H]3C(=O)O)cc2)cc1)Nc1cccc(C(F)(F)F)c1,17 nM,–
O=C(O)[C@@H]1CCC[C@H]1C(=O)c1ccc(-c2ccc(Nc3nc4ccc(OC(F)(F)F)cc4s3)c(F)c2)cc1,207 nM,–
O=C(Nc1ccccc1)Nc1ccc(-c2ccc(C(=O)[C@H]3CCC[C@@H]3C(=O)O)cc2)cc1,–,96 nM

# Second part, the compound after the results:
IC50 [1],IC50 [2],Compound
–,98 nM,O=C(Nc1ccccc1)Nc1ccc(-c2ccc(C(=O)[C@@H]3CCC[C@@H]3C(=O)O)cc2)cc1
14 nM,–,O=C(Nc1ccc(-c2ccc(C(=O)[C@@H]3CCC[C@H]3C(=O)O)cc2)cc1)Nc1ccc(C(F)(F)F)cc1
